Data as given in patent US12721853B2, “Applications of CX-5461 in treating immune rejection in renal transplantation” (Sun Yat-sen University, priority 2022, dated 2026).

What was measured:
renal implants = experiment: Appearance of the kidney graft, acute rejection model after renal transplantation in rats; type: in vivo, rat; settings: seventh day after renal transplantation, CX5461 of 2 mg/kg, compared with acute rejection group (AR)
From the text: (§1) • (1) Lewis male rats and Brown Norway male rats are purchased from Beijing Vital River Laboratory Animal Technology Co., Ltd., with weight of around 200 g and age of 6-8 weeks old, and the rearing environment is of SPF level. • (2) Establishment of acute rejection model after renal transplantation in rats: the donor of Brown Norway male rats aged 6-8 weeks, about 200 g, is transplanted into Lewis male rats, and the surgical scheme is end-to-end renal vein anastomosis as reported in most literatures. The experimental groups are divided into normal group (Control) of donor rats, acute rejection (AR) group and drug group (CX5461 of 2 mg/kg) with 5 rats each. After successful renal transplantation, the rats are killed at 3 days, 5 days and 7 days after operation, and blood is collected from the lower abdominal aorta by using a 5 mL sterile syringe. […] Subsequently, the concentration and purity of total RNA are measured using a Nanodrop. Using the RNA as a template, reverse transcription is performed by reverse transcription kit of Beijing TransGen Biotech Company to obtain a cDNA template, and quantitative PCR analysis is carried out by using this cDNA as a template and using TransGen qPCR kit according to the instructions and the detection primers shown in Table 1 below.

[1] = tested on: IL-6, IL-10, IL-17A cytokines in spleen; experiment: Real-time RT-PCR of cytokines in spleen after renal transplantation; type: in vivo, rat; settings: seventh day after renal transplantation, compared with AR group, ***P<0.001
From the text: as §1, with “syringe. The collected blood is placed in a procoagulants tube at room temperature for 1 h, centrifuged at 4000 r/min in a centrifuge at 4° C. for 10 min, and the obtained serum is packaged in an EP tube and frozen at −80° C. for enzyme-linked immunosorbent assay (ELISA) detection.” for “syringe.”

[2] = tested on: IL-6, IL-10 cytokines in serum; experiment: ELISA of cytokines in serum after renal transplantation; type: in vivo, rat; settings: seventh day after renal transplantation, compared with AR group, ***P<0.001
From the text: as §1, with “below. […]” for “below.”

[3] = Creatinine and urea nitrogen levels in blood after renal transplantation; type: in vivo, rat
From the text: • (1) Lewis male rats and Brown Norway male rats are purchased from Beijing Vital River Laboratory Animal Technology Co., Ltd., with weight of around 200 g and age of 6-8 weeks old, and the rearing environment is of SPF level. • (2) Establishment of acute rejection model after renal transplantation in rats: the donor of Brown Norway male rats aged 6-8 weeks, about 200 g, is transplanted into Lewis male rats, and the surgical scheme is end-to-end renal vein anastomosis as reported in most literatures. The experimental groups are divided into normal group (Control) of donor rats, acute rejection (AR) group and drug group (CX5461 of 2 mg/kg) with 5 rats each. […] The collected blood is placed in a procoagulants tube at room temperature for 1 h, centrifuged at 4000 r/min in a centrifuge at 4° C. for 10 min, and the obtained serum is packaged in an EP tube and frozen at −80° C. for enzyme-linked immunosorbent assay (ELISA) detection. The removed transplanted kidney is cut in half along the longitudinal axis and soaked in 4% paraformaldehyde for pathological reaction verification. • (3) Real-time RT-PCR analysis: RNA is extracted from rat spleen by using Trizol method, and the specific operation is as follows: 1 mL of Trizol is added to the EP tube containing rat spleen and placed in the refrigerator at 4° C. for 10 min; then, porcelain beads are added into it and put into an automatic grinder, and ground at 4° C. for 5 min; 0.2 mL chloroform (i.e., ⅕ Trizol volume) is added into the EP tube, followed by shaking vigorously for about 20 times, then centrifuging at 12,500 rpm at 4° C. for 15 min; the obtained upper aqueous phase is placed in a new EP tube and carefully aspirated about 3 times with a 200 μL gun tip, and approximately an equal volume of isopropanol (i.e., 600 μL) is added, and the RNA is precipitated by centrifugation at 12,500 rpm for 15 min at 4° C., at which time a white RNA precipitate is seen. Then, 1 ml of 75% ethanol is added for washing twice, followed by centrifugation at 12500 rpm and 4° C. for 5 min. The supernatant is discarded and the precipitated RNA is allowed to dry naturally in an ultra-clean bench. RNA is obtained by dissolving the RNA precipitate with 100 μL of Rnase-free water. Subsequently, the concentration and purity of total RNA are measured using a Nanodrop. Using the RNA as a template, reverse transcription is performed by reverse transcription kit of Beijing TransGen Biotech Company to obtain a cDNA template, and quantitative PCR analysis is carried out by using this cDNA as a template and using TransGen qPCR kit according to the instructions and the detection primers shown in Table 1 below.

[4] = Survival of rats after renal transplantation; type: in vivo, rat; settings: compared with acute rejection group
From the text: as §1

transplanted kidney = experiment: H&E staining and immunohistochemical staining (anti-IL-17A) of transplanted kidney; type: in vivo, rat; settings: seventh day after renal transplantation
Treg cells in the spleen = experiment: CD4+CD25+Foxp3+ flow cytometry of spleen; type: in vivo, rat; settings: seventh day after renal transplantation
[5] = tested on: Pol I-driven rRNA transcription; settings: cited from earlier work
Pol II = settings: cited from earlier work
[6] = third, fifth and seventh day after renal transplantation, AR group continues to increase
[7] = within 42 days after renal transplantation

## Cc1cnc(CNC(=O)c2c(=O)c3ccc(N4CCCN(C)CC4)nc3n3c2sc2ccccc23)cn1 [CX-5461]
Renal implants
  inflammatory immune infiltration, appearance of the kidney graft: no obvious inflammatory immune infiltration
  renal fibrosis, appearance of the kidney graft: less renal fibrosis
[1]
  IL-6 cytokine in spleen: significantly down-regulated
  IL-10 cytokine in spleen: significantly up-regulated
  IL-17A cytokine in spleen: significantly down-regulated
[2]
  IL-6 cytokine in serum: significantly down-regulated
  IL-10 cytokine in serum: up-regulated
[3]; [6]
  creatinine level: remain at a low level
  urea nitrogen level: remain at a low level
[3]; [7]
  creatinine level: remain at a relatively low level
  urea nitrogen level: remain at a relatively low level
[4]
  survival time of rats after renal transplantation: significantly longer
Transplanted kidney
  IL-17A cytokine in kidney transplant (immunohistochemistry): reducing the levels of IL-17A cytokine
  changes in renal tubules (H&E staining): no obvious changes in renal tubules
  glomerulus shrinkage (H&E staining): no obvious shrinkage
  infiltration of inflammatory cells (staining): no obvious infiltration of inflammatory cells
  renal fibrosis (staining): reduced renal fibrosis
Treg cells in the spleen
  proportion of Treg cells (CD4+CD25+Foxp3+) in the spleen: obviously increased
[5]; HCT-116, A375, and MIA PaCa-2 cells, read-out: IC50, inhibition of Pol I-driven rRNA transcription
  IC50: 0.142 µM
[5]
  selectivity of rRNA transcription inhibition over DNA replication and protein translation: 250- to 300 fold
Pol II
  effect on Pol II: no effect
